Measured values taken from patent publication US20150111852A1, “1-Di(sec-butyl)-phosphinoyl-pentane (dapa-2-5) as a topical agent” (priority 2013, published 2015).

Legend:
[1] = system: isolated normal mouse vagus; assay: Capsaicin-induced depolarization of isolated vagus nerve, wild type
Protocol: (§1) To examine the ability of DAPA-2-5 to suppress sensory discomfort, it was tested in an animal model developed at the Imperial College, London, U.K. [Birrell et al. TRPA1 agonists evoke coughing in guinea pig and human volunteers. Amer. J. Respiratory and Critical Care Medicine 180, 1042-7, 2009; Patel et al., Inhibition of guinea-pig and human sensory nerve activity and the cough reflex in guinea-pigs by cannabinoid (CB2) receptor activation. British J. Pharmacol. 140, 261-8 2003]. In this in vitro assay, segments of the vagus nerve are placed on a platform and the electrical activity is recorded after topical application of capsaicin. Capsaicin is a known irritant that elicits pain when it is applied to the skin and it will depolarize the isolated vagus. The ability of substances to inhibit this capsaicin-induced depolarization is measured.
(§2) Briefly, segments of vagus nerve, caudal to the nodose ganglion, were removed from mice with fine forceps and segments placed in oxygenated Krebs solution and bubbled with 95% O2/5% CO2. The desheathed nerve trunk was mounted in a ‘grease-gap’ recording chamber and constantly superfused with Krebs solution with a flow rate of approximately 2 mL/min, and the electrical activity of the nerve monitored with electrodes. The temperature of the perfusate was kept constant at 37° C. by a water bath. […]

mouth and throat = assay: Sensory activity of ODT-C on volunteers (double-blind, modified ASHRAE scale); assay type: in vivo, human; conditions: doses higher than 1.5 mg
[2] = HPLC content of DAPA-2-5 recovered from disintegrated prototype tablets; assay type: physicochemical
Protocol: A high pressure liquid chromatography [HPLC] method was developed for analysis of DAPA-2-5 in aqueous solution. The chromatographic conditions were: Column: Waters XTerra RP18, 150×4.6 mm, 3.5 μm, Column temperature: 40° C., Mobile phase : 0.1% Tetrabutyl ammonium and Tri fluro acetic acid in 900mL water and 100 mL Acetonitrile, Flow: 1.0 mUmin, Diluent : Water, Wavelength: 226 nm, Injection Volume: 100 μL, Run time: 10 min, Standard Preparation: 0.75 mg/mL of DAPA-2-5 in water. Sample Preparation: Equivalent to 0.75 mg/mL of DAPA-2-5 in water. Prototype tablets containing DAPA-2-5 were disintegrated and the content of DAPA-2-5 measured. […] It is likely that the non-eluted DAPA-2-5 remains tightly bound to sites on the Neusilin US2.

[3] = biological target: T1, hNav1.7 (sodium channels) (Homo sapiens, UniProt Q15858); assay: Patch-clamp in transfected cells, hNav1.7; assay type: cell-based; conditions: DAPA-2-5 at 5 μM; positive control lidocaine
T1 construct: expressed in transfected cells
T1 sequence (Q15858 whole entry): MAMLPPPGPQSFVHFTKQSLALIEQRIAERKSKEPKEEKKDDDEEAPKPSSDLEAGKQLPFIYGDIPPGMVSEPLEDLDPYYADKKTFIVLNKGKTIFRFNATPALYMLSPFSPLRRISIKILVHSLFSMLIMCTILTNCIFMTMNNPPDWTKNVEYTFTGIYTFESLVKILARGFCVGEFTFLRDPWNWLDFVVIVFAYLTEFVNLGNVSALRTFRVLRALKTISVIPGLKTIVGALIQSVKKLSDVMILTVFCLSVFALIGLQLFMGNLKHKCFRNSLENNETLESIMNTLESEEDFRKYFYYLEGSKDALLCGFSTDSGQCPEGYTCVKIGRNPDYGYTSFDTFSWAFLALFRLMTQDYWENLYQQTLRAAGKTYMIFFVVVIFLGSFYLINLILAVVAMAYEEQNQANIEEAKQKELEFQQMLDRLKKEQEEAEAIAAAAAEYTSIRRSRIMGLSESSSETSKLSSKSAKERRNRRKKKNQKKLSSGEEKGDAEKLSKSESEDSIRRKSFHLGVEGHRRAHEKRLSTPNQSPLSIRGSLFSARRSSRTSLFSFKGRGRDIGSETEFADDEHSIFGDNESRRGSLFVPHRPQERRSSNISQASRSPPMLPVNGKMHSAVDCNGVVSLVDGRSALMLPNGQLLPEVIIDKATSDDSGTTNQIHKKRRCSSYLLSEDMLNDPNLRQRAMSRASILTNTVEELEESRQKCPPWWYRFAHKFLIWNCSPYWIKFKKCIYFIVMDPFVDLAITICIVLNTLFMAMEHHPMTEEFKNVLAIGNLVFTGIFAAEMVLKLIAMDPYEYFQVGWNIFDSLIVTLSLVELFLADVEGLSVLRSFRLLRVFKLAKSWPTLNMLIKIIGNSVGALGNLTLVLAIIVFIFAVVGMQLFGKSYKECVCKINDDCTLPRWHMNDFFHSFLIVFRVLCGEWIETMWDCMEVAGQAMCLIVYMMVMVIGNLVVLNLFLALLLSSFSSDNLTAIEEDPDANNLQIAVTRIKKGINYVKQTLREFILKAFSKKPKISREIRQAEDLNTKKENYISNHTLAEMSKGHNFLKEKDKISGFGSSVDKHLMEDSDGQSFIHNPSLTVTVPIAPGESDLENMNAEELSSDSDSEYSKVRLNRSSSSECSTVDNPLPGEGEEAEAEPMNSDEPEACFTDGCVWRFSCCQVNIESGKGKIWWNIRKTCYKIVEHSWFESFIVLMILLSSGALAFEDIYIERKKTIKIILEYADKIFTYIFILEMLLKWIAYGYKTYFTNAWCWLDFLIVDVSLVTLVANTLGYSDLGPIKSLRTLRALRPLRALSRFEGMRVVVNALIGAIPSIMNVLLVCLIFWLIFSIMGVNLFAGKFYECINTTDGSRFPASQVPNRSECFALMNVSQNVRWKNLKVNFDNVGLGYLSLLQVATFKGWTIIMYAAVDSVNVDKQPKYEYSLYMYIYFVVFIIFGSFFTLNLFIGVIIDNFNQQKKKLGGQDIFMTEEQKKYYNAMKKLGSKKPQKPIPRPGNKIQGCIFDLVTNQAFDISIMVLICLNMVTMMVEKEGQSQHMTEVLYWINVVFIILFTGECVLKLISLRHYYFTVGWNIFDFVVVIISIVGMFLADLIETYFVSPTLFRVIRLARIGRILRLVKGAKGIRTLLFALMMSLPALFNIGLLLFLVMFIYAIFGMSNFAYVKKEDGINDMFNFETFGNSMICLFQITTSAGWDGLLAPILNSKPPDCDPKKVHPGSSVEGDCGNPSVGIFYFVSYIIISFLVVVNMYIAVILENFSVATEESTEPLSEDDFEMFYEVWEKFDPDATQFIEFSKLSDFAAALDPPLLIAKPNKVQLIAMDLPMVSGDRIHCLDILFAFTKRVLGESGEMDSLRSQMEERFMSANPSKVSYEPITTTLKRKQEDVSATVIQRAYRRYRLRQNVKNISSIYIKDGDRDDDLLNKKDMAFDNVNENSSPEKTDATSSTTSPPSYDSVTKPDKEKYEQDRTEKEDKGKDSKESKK

capsaicin-induced cough = assay: Guinea pig cough model, capsaicin mist; assay type: in vivo; conditions: capsaicin 0.1 mM mist, identical design
Protocol: This study was repeated with an identical design, but using capsaicin 0.1 mM mist as the stimulus.

[4] = system: isolated TRPM8 knock-out mouse vagus; assay: Capsaicin-induced depolarization of isolated vagus nerve, TRPM8 knock-out; conditions: 1 mg/mL, capsaicin 1 μM, TRPM8 KO, read-out: per cent inhibition of capsaicin-induced depolarization
Protocol: as §1, §2

[5] = biological target: T2, TRPV1 channels (human TRPV1 gene expressed in HEK293 cells) (Homo sapiens, UniProt Q8NER1); assay: TRPV1 agonist assay; assay type: cell-based
T2 construct: expressed in transfected cells; host or cells: HEK293 cells
T2 sequence (Q8NER1 whole entry): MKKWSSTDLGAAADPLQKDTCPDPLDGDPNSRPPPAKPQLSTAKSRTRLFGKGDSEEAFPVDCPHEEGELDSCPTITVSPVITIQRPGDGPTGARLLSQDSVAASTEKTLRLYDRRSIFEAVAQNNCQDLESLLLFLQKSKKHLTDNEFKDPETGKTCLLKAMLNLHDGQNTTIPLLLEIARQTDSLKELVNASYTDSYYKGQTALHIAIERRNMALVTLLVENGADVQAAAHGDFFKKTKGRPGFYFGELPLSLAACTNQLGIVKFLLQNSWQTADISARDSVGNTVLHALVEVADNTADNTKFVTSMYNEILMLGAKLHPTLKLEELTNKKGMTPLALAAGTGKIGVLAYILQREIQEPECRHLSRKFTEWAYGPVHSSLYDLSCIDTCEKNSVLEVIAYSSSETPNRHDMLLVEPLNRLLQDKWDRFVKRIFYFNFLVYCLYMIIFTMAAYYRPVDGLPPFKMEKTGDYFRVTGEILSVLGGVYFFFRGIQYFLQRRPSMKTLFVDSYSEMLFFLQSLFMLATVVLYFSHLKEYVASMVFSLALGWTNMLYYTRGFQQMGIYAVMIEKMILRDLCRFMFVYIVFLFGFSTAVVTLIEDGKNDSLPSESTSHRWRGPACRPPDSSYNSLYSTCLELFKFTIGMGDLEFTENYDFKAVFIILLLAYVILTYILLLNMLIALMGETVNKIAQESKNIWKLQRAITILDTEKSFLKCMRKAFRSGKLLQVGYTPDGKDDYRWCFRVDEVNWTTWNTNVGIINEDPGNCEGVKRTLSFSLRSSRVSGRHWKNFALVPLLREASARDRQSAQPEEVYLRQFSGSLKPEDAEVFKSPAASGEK
Protocol: To examine the specificity of the test compounds, further studies were conducted on TRPV1 channels (human TRPV1 gene expressed in HEK293 cells) and TRPA1 channels (human TRPA1 gene expressed in CHO cells). The test cells were Chinese Hamster Ovary (CHO) cells or Human Embyronic Kidney (HEK) 293 cells transfected with human TRPV1 or TRPA1 cDNAs.

Structure (SMILES): CCCCCP(=O)(C(C)CC)C(C)CC (centres unmarked) [DAPA-2-5, 1-Di(sec-butyl)-phosphinoyl-pentane]
- depolarization evoked by the compound itself [1]: did not evoke depolarization
- inhibition at 1000 µg/mL ([1]; Mus musculus, 10 min, 1 mg/mL for 10 min, capsaicin 1 μM, read-out: per cent inhibition of capsaicin-induced depolarization): ~60%
- ODT-C test results at higher doses (mouth and throat): higher than 1.5 mg “penetrating cold” sensations.
- DAPA-2-5 recovered from the aqueous phase [2]: 86±2%
- agonist or antagonist activity, hNav1.7 [3]: No agonist or antagonist activities
- effect on capsaicin-induced coughing (capsaicin-induced cough): inhibited the capsaiscin-induced coughing
- inhibition at 1000 µg/mL [4]: ~0%
- times less potent than DAPA-2-6 in stimulating TRPV1 [5]: 54
